Measured values published in publication PMC12257509, “New Generation Modified Azole Antifungals against Multidrug-Resistant” (Journal of Medicinal Chemistry, 2025).
Where two headings read alike, the source gives them in different places.

Molecular target: T1, CYP51 (CaCYP51), lanosterol 14α-demethylase (Candida albicans, UniProt P10613)
T1 construct: gene ERG11; recombinant CaCYP51
Experiment: CYP51 reconstitution assay with CPR and NADPH, GC-MS of demethylated sterols
Type: biochemical

T1 sequence (P10613 whole entry): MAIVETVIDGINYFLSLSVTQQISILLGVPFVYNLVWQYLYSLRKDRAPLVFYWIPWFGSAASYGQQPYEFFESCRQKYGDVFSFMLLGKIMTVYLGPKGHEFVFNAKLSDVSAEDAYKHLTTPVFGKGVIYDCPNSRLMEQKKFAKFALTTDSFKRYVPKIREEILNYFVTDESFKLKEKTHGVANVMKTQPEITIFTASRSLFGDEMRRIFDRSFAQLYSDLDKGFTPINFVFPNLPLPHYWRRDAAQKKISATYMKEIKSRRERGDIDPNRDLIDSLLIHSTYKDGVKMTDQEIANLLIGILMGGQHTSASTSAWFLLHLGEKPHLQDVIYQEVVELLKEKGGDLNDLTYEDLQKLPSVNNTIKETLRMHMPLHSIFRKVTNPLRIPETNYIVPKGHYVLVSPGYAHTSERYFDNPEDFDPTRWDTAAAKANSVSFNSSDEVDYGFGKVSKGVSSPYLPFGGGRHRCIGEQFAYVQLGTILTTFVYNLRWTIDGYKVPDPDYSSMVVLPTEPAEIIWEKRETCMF

Row | Structure (SMILES) | IC50 (read-out: IC50) [nM] | IC50 [nM]
1 | OC(Cn1cncn1)(Cn1cncn1)c1ccc(F)cc1F [fluconazole] | ~600 | 
2 | OC(CN1CCC(Nc2ncc(F)cn2)CC1)(Cn1cncn1)c1ccc(F)cc1F (racemic) [compound 7, 2-(2,4-Difluorophenyl)-1-(4-((5-fluoropyrimidin-2-Yl)-amino)-piperidin-1-Yl)-3-(1h-1,2,4-triazol-1-Yl)-propan-2-Ol] |  | ~400
